Measurements published in US20240067693A1, “POLYPEPTIDES AND USES THEREOF” (MEDIMMUNE LIMITED, priority 2020, published 2024).
Numbered stars: 1 amine (or outer) side, 2 acyl side, 3 side chain; on linkers, the order of the positions; unused ones are H or OH. Bridge positions count the residues as written; N and C are the ends. Square brackets hold non-standard residues; d marks the D form. Side chains are listed from the residue outwards. Peptide text beside a SMILES is read from it. * marks the point of attachment. C20 diacid = O=C(O)CCCCCCCCCCCCCCCCCCC(=O)*; C18 diacid = O=C(O)CCCCCCCCCCCCCCCCC(=O)*; γGlu = O=C(O)[C@H](CCC(=O)[*:2])N[*:1]; Dab = NCC[C@H](N)C(=O)O; Aib = CC(C)(N)C(=O)O

What was measured:
[1] = molecular target: T1, human calcitonin receptor (hCTR) (Homo sapiens, UniProt P30988); assay: cAMP production in 1321N1 cells with stable recombinant expression of human calcitonin receptor (hCTR); type: cell-based; conditions: cAMP, 1321N1 cells, assay buffer with 0.1% BSA; read-out: EC50 (pM) hCTR
T1 construct: expressed in transfected cells
T1 sequence (P30988 25-474): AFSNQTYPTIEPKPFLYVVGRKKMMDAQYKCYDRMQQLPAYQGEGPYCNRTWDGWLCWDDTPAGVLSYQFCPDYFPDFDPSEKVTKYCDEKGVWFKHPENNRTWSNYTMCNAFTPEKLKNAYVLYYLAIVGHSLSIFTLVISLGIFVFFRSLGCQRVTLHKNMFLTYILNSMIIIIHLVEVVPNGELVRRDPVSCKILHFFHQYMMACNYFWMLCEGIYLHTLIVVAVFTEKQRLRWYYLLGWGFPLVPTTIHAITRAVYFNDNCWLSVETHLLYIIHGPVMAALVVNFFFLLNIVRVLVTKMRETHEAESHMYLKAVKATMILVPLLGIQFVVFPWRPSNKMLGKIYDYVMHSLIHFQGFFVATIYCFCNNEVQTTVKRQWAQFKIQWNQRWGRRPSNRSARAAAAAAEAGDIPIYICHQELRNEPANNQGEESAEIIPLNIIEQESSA
Description: (§1) The functional activities of lipidated pramlintide analogue peptides, such as cAMP production, were tested in 1321N1 cell line with stable recombinant expression of human calcitonin receptor (hCTR) or human amylin receptor (calcitonin receptor co-expressed with receptor activity modifying protein, RAMP3) (hAMYR3) or HEK cells with stable recombinant expression of rat calcitonin receptor (rat CTR) or rat amylin receptor (calcitonin receptor co-expressed with receptor activity modifying protein, RAMP3) (Rat AMYR3).
(§2) Cryopreserved cell stock was thawed rapidly in a water-bath, suspended in assay buffer (0.1% BSA (Sigma # A3059) in HBSS (Sigma # H8264) with 25 mM HEPES, pH 7.4 and containing 0.5 mM IB MX (Sigma# 17018)) and spun at 240×g for 5 minutes. Cells were re-suspended in assay buffer at a batch-dependent optimized concentration (e.g. hCTR cells at 0.125×10^5 cells/mL, hAMYR3 cells at 0.125×10^5 cells/mL, rat CTR cells at 1x10^5 cells/mL, rat AMYR3 at 2×10^5 cells/mL).
(§3) The test peptide stock was prepared in DMSO and diluted in assay buffer to reach stated concentrations and transferred in duplicates into a 384-black shallow well microtitre assay plate (Corning # 3676). Cells were added to the assay plate, incubated at room temperature for 30 minutes and the cAMP level measured using cAMP dynamic 2 HTRF kit (Cisbio, Cat # 62AM4PEJ), following the two step protocol as per manufacturer's recommendations. The plates were read on an Envision (Perkin Elmer) using excitation wavelength of 320 nm and emission wavelengths of 620nm & 665 nm.
(§4) Data was transformed to % Delta F as described in the manufacturer's guidelines and analyzed as percent activation of maximal amylin or calcitonin effect by 4-parameter logistic fit to determine EC50 values. The selectivity of a peptide to hAMYR vs hCTR is defined as a ratio of EC50 values at the two receptors.

[2] = molecular target: T2, human amylin receptor (calcitonin receptor co-expressed with receptor activity modifying protein, RAMP3) (hAMYR3) (Homo sapiens, UniProt O60896+P30988); assay: cAMP production in 1321N1 cells with stable recombinant expression of human amylin receptor (hAMYR3); type: cell-based; conditions: for Ratio (selectivity hAMYR vs hCTR, ratio of EC50 values at the two receptors): EC50 hCTR / EC50 hAMYR3; for EC50: cAMP, 1321N1 cells, assay buffer with 0.1% BSA, read-out: EC50 (pM) hAMYR3
T2 construct: expressed in transfected cells
T2 sequence (P30988 25-474): T1 sequence (P30988 25-474)
T2 sequence (O60896 24-148 partner): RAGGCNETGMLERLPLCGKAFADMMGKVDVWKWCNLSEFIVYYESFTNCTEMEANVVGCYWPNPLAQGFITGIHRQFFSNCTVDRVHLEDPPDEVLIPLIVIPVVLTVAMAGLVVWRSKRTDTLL
Description: as §1, §2, §3, §4

Structure (SMILES) | EC50 [1] [pM] | Ratio (selectivity hAMYR vs hCTR, ratio of EC50 values at the two receptors) [2] | EC50 [2] [pM]
CC[C@H](C)[C@H](NC(=O)[C@@H]1CCCN1C(=O)CNC(=O)[C@H](Cc1ccccc1)NC(=O)[C@H](CC(N)=O)NC(=O)C(C)(C)NC(=O)[C@H](CO)NC(=O)[C@H](CO)NC(=O)[C@H](Cc1c[nH]cn1)NC(=O)[C@@H](NC(=O)[C@H](CC(C)C)NC(=O)[C@H](Cc1ccccc1)NC(=O)[C@H](CC(N)=O)NC(=O)[C@H](C)NC(=O)[C@H](CC(C)C)NC(=O)[C@H](CCCNC(=N)N)NC(=O)[C@H](CCC(N)=O)NC(=O)[C@@H](NC(=O)[C@H](C)NC(=O)[C@@H]1CSSC[C@H](NC(=O)[C@@H](N)CCCCNC(=O)CC[C@H](NC(=O)CCCCCCCCCCCCCCCCC(=O)O)C(=O)O)C(=O)N[C@@H](CC(N)=O)C(=O)N[C@@H]([C@@H](C)O)C(=O)N[C@@H](C)C(=O)N[C@@H]([C@@H](C)O)C(=O)N1)[C@@H](C)O)C(C)C)C(=O)N[C@@H](CC(C)C)C(=O)N1CCC[C@@H]1C(=O)N1CCC[C@H]1C(=O)N[C@H](C(=O)N[C@@H](CC(N)=O)C(=O)N[C@H](C(=O)NCC(=O)N[C@@H](CO)C(=O)N[C@@H](CC(N)=O)C(=O)N[C@H](C(=O)N[C@@H](Cc1ccc(O)cc1)C(N)=O)[C@@H](C)O)C(C)C)[C@@H](C)O [Peptide 60, K(γE-C18diacid)[CNTATC]ATQRLANFLVHSS(Aib)NFGPIL(dP)PTNVGSNTY-amide] (H-K([γGlu-C18 diacid])CNTATCATQRLANFLVHSS[Aib]NFGPIL[dP]PTNVGSNTY-NH2; disulfide 2-7; N-terminus assumed) | 1030 | 11 | 96
CC[C@H](C)[C@H](NC(=O)[C@H](C)NC(=O)[C@@H]1CCCN1C(=O)[C@H](Cc1ccccc1)NC(=O)[C@H](CC(N)=O)NC(=O)[C@@H]1CCCN1C(=O)[C@@H]1CCCN1C(=O)[C@H](CO)NC(=O)[C@H](Cc1c[nH]cn1)NC(=O)[C@@H](NC(=O)[C@H](CC(C)C)NC(=O)[C@H](Cc1ccccc1)NC(=O)[C@H](CC(N)=O)NC(=O)[C@H](C)NC(=O)[C@H](CC(C)C)NC(=O)[C@H](CCCNC(=N)N)NC(=O)[C@H](CCC(N)=O)NC(=O)[C@@H](NC(=O)[C@H](C)NC(=O)[C@@H]1CSSC[C@H](NC(=O)[C@@H](N)CCCCNC(=O)CC[C@H](NC(=O)CC[C@H](NC(=O)CCCCCCCCCCCCCCCCCCC(=O)O)C(=O)O)C(=O)O)C(=O)N[C@@H](CC(N)=O)C(=O)N[C@@H]([C@@H](C)O)C(=O)N[C@@H](C)C(=O)N[C@@H]([C@@H](C)O)C(=O)N1)[C@@H](C)O)C(C)C)C(=O)N[C@@H](CC(C)C)C(=O)N[C@@H](CO)C(=O)N1CCC[C@H]1C(=O)N[C@H](C(=O)N[C@@H](CC(N)=O)C(=O)N[C@H](C(=O)NCC(=O)N[C@@H](CO)C(=O)N[C@@H](CC(N)=O)C(=O)N[C@H](C(=O)N[C@@H](Cc1ccc(O)cc1)C(N)=O)[C@@H](C)O)C(C)C)[C@@H](C)O [Peptide 119] (H-K([γGlu-γGlu-C20 diacid])CNTATCATQRLANFLVHSPPNFPAILSPTNVGSNTY-NH2; disulfide 2-7; N-terminus assumed) | 34700 | 24 | 1460
CC[C@H](C)[C@H](NC(=O)[C@H](C)NC(=O)[C@@H]1CCCN1C(=O)[C@H](Cc1ccccc1)NC(=O)[C@H](CC(N)=O)NC(=O)C(C)(C)NC(=O)[C@H](CO)NC(=O)[C@H](CO)NC(=O)[C@H](Cc1c[nH]cn1)NC(=O)[C@@H](NC(=O)[C@H](CC(C)C)NC(=O)[C@H](Cc1ccccc1)NC(=O)[C@H](CC(N)=O)NC(=O)[C@H](C)NC(=O)[C@H](CC(C)C)NC(=O)[C@H](CCCNC(=N)N)NC(=O)[C@H](CCC(N)=O)NC(=O)[C@@H](NC(=O)[C@H](C)NC(=O)[C@@H]1CSSC[C@H](NC(=O)[C@@H](N)CCCCNC(=O)CC[C@H](NC(=O)CC[C@H](NC(=O)CCCCCCCCCCCCCCCCCCC(=O)O)C(=O)O)C(=O)O)C(=O)N[C@@H](CC(N)=O)C(=O)N[C@@H]([C@@H](C)O)C(=O)N[C@@H](C)C(=O)N[C@@H]([C@@H](C)O)C(=O)N1)[C@@H](C)O)C(C)C)C(=O)N[C@@H](CC(C)C)C(=O)N[C@@H](CO)C(=O)N1CCC[C@H]1C(=O)N[C@H](C(=O)N[C@@H](CCN)C(=O)N[C@H](C(=O)NCC(=O)N[C@@H](CO)C(=O)N[C@@H](CC(N)=O)C(=O)N[C@H](C(=O)N[C@@H](Cc1ccc(O)cc1)C(N)=O)[C@@H](C)O)C(C)C)[C@@H](C)O [Peptide 123, K(γE-γE-C20diacid)[CNTATC]ATQRLANFLVHSS(Aib)NFPAILSPT(Dab)VGSNTY-amide] (H-K([γGlu-γGlu-C20 diacid])CNTATCATQRLANFLVHSS[Aib]NFPAILSPT[Dab]VGSNTY-NH2; disulfide 2-7; N-terminus assumed) | 4790 | 5 | 873

Next, values leading:

EC50 [1] [pM] | Ratio (selectivity hAMYR vs hCTR, ratio of EC50 values at the two receptors) [2] | EC50 [2] [pM] | Structure (SMILES)
1170 | 4 | 281 | CC[C@H](C)[C@H](NC(=O)[C@@H]1CCCN1C(=O)CNC(=O)[C@H](Cc1ccccc1)NC(=O)[C@H](CC(N)=O)NC(=O)C(C)(C)NC(=O)[C@H](CO)NC(=O)[C@H](CO)NC(=O)[C@H](Cc1c[nH]cn1)NC(=O)[C@@H](NC(=O)[C@H](CC(C)C)NC(=O)[C@H](Cc1ccccc1)NC(=O)[C@H](CC(N)=O)NC(=O)[C@H](C)NC(=O)[C@H](CC(C)C)NC(=O)[C@H](CCCNC(=N)N)NC(=O)[C@H](CCC(N)=O)NC(=O)[C@@H](NC(=O)[C@H](C)NC(=O)[C@@H]1CSSC[C@H](NC(=O)[C@H](CCCCN)NC(=O)[C@@H](N)CCCCNC(=O)CC[C@H](NC(=O)CCCCCCCCCCCCCCCCC(=O)O)C(=O)O)C(=O)N[C@@H](CC(N)=O)C(=O)N[C@@H]([C@@H](C)O)C(=O)N[C@@H](C)C(=O)N[C@@H]([C@@H](C)O)C(=O)N1)[C@@H](C)O)C(C)C)C(=O)N[C@@H](CC(C)C)C(=O)NC(C)(C)C(=O)N1CCC[C@H]1C(=O)N[C@H](C(=O)N[C@@H](CC(N)=O)C(=O)N[C@H](C(=O)NCC(=O)N[C@@H](CO)C(=O)N[C@@H](CC(N)=O)C(=O)N[C@H](C(=O)N[C@@H](Cc1ccc(O)cc1)C(N)=O)[C@@H](C)O)C(C)C)[C@@H](C)O [Peptide 88, K(γE-C18diacid)K[CNTATC]ATQRLANFLVHSS(Aib)NFGPIL(Aib)PTNVGSNTY-amide] (H-K([γGlu-C18 diacid])KCNTATCATQRLANFLVHSS[Aib]NFGPIL[Aib]PTNVGSNTY-NH2; disulfide 3-8; N-terminus assumed)
8210 | 34 | 243 | CC[C@H](C)[C@H](NC(=O)[C@@H]1CCCN1C(=O)CNC(=O)[C@H](Cc1ccccc1)NC(=O)[C@H](CC(N)=O)NC(=O)[C@H](CCN)NC(=O)[C@H](CO)NC(=O)[C@H](CO)NC(=O)[C@H](Cc1c[nH]cn1)NC(=O)[C@@H](NC(=O)[C@H](CC(C)C)NC(=O)[C@H](Cc1ccccc1)NC(=O)[C@H](CC(N)=O)NC(=O)[C@H](C)NC(=O)[C@H](CC(C)C)NC(=O)[C@H](CCCNC(=N)N)NC(=O)[C@H](CCC(N)=O)NC(=O)[C@@H](NC(=O)[C@H](C)NC(=O)[C@@H]1CSSC[C@H](NC(=O)[C@H](CCCCN)NC(=O)[C@@H](N)CCCCNC(=O)CC[C@H](NC(=O)CCCCCCCCCCCCCCCCC(=O)O)C(=O)O)C(=O)N[C@@H](CC(N)=O)C(=O)N[C@@H]([C@@H](C)O)C(=O)N[C@@H](C)C(=O)N[C@@H]([C@@H](C)O)C(=O)N1)[C@@H](C)O)C(C)C)C(=O)N[C@@H](CC(C)C)C(=O)N1CCC[C@H]1C(=O)N1CCC[C@H]1C(=O)N[C@H](C(=O)N[C@@H](CC(N)=O)C(=O)N[C@H](C(=O)NCC(=O)N[C@@H](CO)C(=O)N[C@@H](CC(N)=O)C(=O)N[C@H](C(=O)N[C@@H](Cc1ccc(O)cc1)C(N)=O)[C@@H](C)O)C(C)C)[C@@H](C)O [Peptide 29, K(γE-C18diacid)K[CNTATC]ATQRLANFLVHSS(Dab)NFGPILPPTNVGSNTY-amide] (H-K([γGlu-C18 diacid])KCNTATCATQRLANFLVHSS[Dab]NFGPILPPTNVGSNTY-NH2; disulfide 3-8; N-terminus assumed)
